Laboratory results: patent EP0155244A2, “1-Ethyl-6-fluoro-7-(1H-pirrol-1-yl)-1,4-dihydro-4-oxoquinoline-3-carboxylic acid: preparation and antimicrobial activities” (priority 1985, dated 1985)
Converted amounts (≈) assume the structure as drawn. Read-outs that look alike come from different tables or passages of the source.

Experiments:
Escherichia coli = test: In vitro antibacterial activity, M.I.C. by serial twofold dilution method on Mueller-Hinton agar; assay type: cell-based; settings: E.Coli, 20 strains, pH 7.2, reading 18 h after incubation at 37°C; for MIC: Escherichia coli
Experimental: (§1) Derivatives (1) and (9) were tested for the in vitro antibacterial activities against Gram-positive and Gram-negative bacteria.Nalidixic acid,pipemidic acid,- piromidic acid and enoxacin were used as positive controls for antibacterial activities.
(§2) Minimum inhibitory concentrations (M.I.C.s) were determined using the serial twolfold dilution method; lectures were performed after incubation at 37° for 18 hours.
(§3) For the experiments the substances were dissolved in NaOH 0.1 N(10 mg/ml);further dilutions in the test medium furnished the required concentrations, generally in the range from 0. 05µg/ml to 100 µg/ml.
(§4) The cultures were obtained on B.H.I. (B.B.L.) after 18 hours incubation at 37°.Tests were carried out using Mueller-Hinton agar (B.B.L.) and inocula were 10^4 bacteria.
(§5) Media M.I.C. values nX (c at least 200 max µg/ml) were calculated by the equation [formula] where si is the number of sensitive strains at the given concentration ci and st is the whole number of the sensitive strains.
(§6) Strains with M.I.C.>200µg/ml are regarded as resistant (R) and are expressed in percentage (%) by the equation : [formula] where N is the whole number of tested strains and N is t s the number of sensitive strains.
(§7) The following species of bacteria freshly isolated from various clinical specimens were tested: 16 strains of […], 10 strains of Staphylococcus spp, 15 strains of Streptococcus ovalis,3 strains of Streptococcus spp, 18 strains of Klebsiella pneumoniae,20 strains of Escherichia coli,ll strains of Salmonella spp (3 S.typhi,l S.paratyphi A,S.paratyphi B, 4 S enteritidis, 1 S.wien and S.infantis,42 strains of Proteus spp (28 P.mirabilis, 8 P.vulgaris,3 P.rettgeri,2 P.morganii and 1 Providencia ) and 8 strains of Pseudomonas aeruginosa.

Klebsiella pneumoniae = test: as above; assay type: cell-based; settings: 18 strains, pH 7.2, reading 18 h after incubation at 37°C
Experimental: as §1, §2, §3, §4, §5, §6, §7

Proteus spp = test: as above; assay type: cell-based
Experimental: as §1, §2, §3, §4, §5, §6, §7

Pseudomonas aeruginosa = test: as above; assay type: cell-based; settings: for R% = percentage of resistant strains / MIC: Pseudomonas aeruginosa, 8 strains, pH 7.2, reading 18 h after incubation at 37°C
Experimental: as §1, §2, §3, §4, §5, §6, §7

Salmonella spp = test: as above; assay type: cell-based; settings: 11 strains, pH 7.2, reading 18 h after incubation at 37°C
Experimental: as §1, §2, §3, §4, §5, §6, §7

Staphylococcus pyogenes = test: as above; assay type: cell-based; settings: Staphylococcus aureus, 16 strains, pH 7.2, reading 18 h after incubation at 37°C
Experimental: as §1, §2, §3, §4, §5, §6, §7

Staphylococcus spp = test: as above; assay type: cell-based; settings: 10 strains, pH 7.2, reading 18 h after incubation at 37°C
Experimental: as §1, §2, §3, §4, §5, §6, §7

Streptococcus ovalis = test: as above; assay type: cell-based; settings: 15 strains, pH 7.2, reading 18 h after incubation at 37°C
Experimental: as §1, §2, §3, §4, §5, §6, §7

Streptococcus spp = test: as above; assay type: cell-based; settings: 3 strains, pH 7.2, reading 18 h after incubation at 37°C
Experimental: as §1, §2, §3, §4, §5, §6, §7

Gram-positive bacteria = test: In vitro antibacterial activity, summary for Gram-positive bacteria; assay type: cell-based, Staphylococcus and Streptococcus
Experimental: as §1, §2, §3, §4, §5, §6, §7

Enterobacteriaceae = test: In vitro antibacterial activity, summary for Enterobacteriaceae; assay type: cell-based
Experimental: as §1, §2, §3, §4, §5
Strains with M.I.C.>200µg/ml are regarded as resistant (R) and are expressed in percentage (%) by the equation : [formula] where N is the whole number of tested strains and N is t s the number of sensitive strains. […]

[1] = read-out: nX̄ = MIC mean values of sensitive strains
[2] = Proteus spp, 42 strains, pH 7.2, reading 18 h after incubation at 37°C
[3] = Proteus spp, 42 strains, pH 7.2, reading 18 h after incubation at 37°C, read-out: nX̄ = MIC mean values of sensitive strains

| Structure (SMILES) | MIC (Escherichia coli; [1]) | MIC (Escherichia coli; read-out: range (MIC)) | MIC (Klebsiella pneumoniae; [1]) | MIC (Klebsiella pneumoniae; read-out: range (MIC)) | R% = percentage of resistant strains (Proteus spp; [2]) | MIC (Proteus spp; [3]) | R% = percentage of resistant strains (Pseudomonas aeruginosa) | MIC (Pseudomonas aeruginosa; [1]) | MIC (Salmonella spp; [1]) | MIC (Salmonella spp; read-out: range (MIC)) | MIC (Staphylococcus pyogenes; [1]) | MIC (Staphylococcus pyogenes; read-out: range (MIC)) | MIC (Staphylococcus spp; [1]) | MIC (Staphylococcus spp; read-out: range (MIC)) | MIC (Streptococcus ovalis; [1]) | MIC (Streptococcus ovalis; read-out: range (MIC)) | MIC (Streptococcus spp; [1]) | MIC (Streptococcus spp; read-out: range (MIC)) | R% (resistant strains) (Gram-positive bacteria) | R% (resistant strains) (Enterobacteriaceae) | further results |
| --- | --- | --- | --- | --- | --- | --- | --- | --- | --- | --- | --- | --- | --- | --- | --- | --- | --- | --- | --- | --- | --- |
| CCn1cc(C(=O)O)c(=O)c2cc(F)c(-n3cccc3)cc21 [Acid (1), l-Ethyl-6-fluoro-l,4-dihydro-4-oxo-7-(lH-pyrrol-l-yl)quinoline-3-carboxylic acid] | 2 µg/mL (≈ 6.66 µM) | 0.2 to 12.5 µg/mL (≈ 0.666 to 41.6 µM) | 3.4 µg/mL (≈ 11.3 µM) | 0.8 to 25 µg/mL (≈ 2.66 to 83.3 µM) | 0% | 6.46 µg/mL (≈ 21.5 µM) | 12.5% | 5.6 µg/mL (≈ 18.6 µM) | 1.3 µg/mL (≈ 4.33 µM) | 0.1 to 3.12 µg/mL (≈ 0.333 to 10.4 µM) | 1.96 µg/mL (≈ 6.53 µM) | 0.1 to 12.5 µg/mL (≈ 0.333 to 41.6 µM) | 1.26 µg/mL (≈ 4.2 µM) | 0.1 to 3.12 µg/mL (≈ 0.333 to 10.4 µM) | 8.4 µg/mL (≈ 28 µM) | 0.8 to 100 µg/mL (≈ 2.66 to 333 µM) | 0.2 µg/mL (≈ 0.666 µM) | 0.2 µg/mL (≈ 0.666 µM) | 0% | 0% | range (MIC) (Proteus spp; [2]): <0.1 to 100 µg/mL; activity against Proteus spp (in words) (Proteus spp; from comparative examination of R% and nX data): highly active; activity against Pseudomonas aeruginosa (in words) (Pseudomonas aeruginosa; from comparative examination of R% and nX data, not so active as enoxacin): very active |
| CCn1cc(C(=O)O)c(=O)c2cc(F)c(N3CCNCC3)cc21 [Norfloxacin, norfloxacin] | 4.47 µg/mL (≈ 14 µM) | 0.2 to 25 µg/mL (≈ 0.626 to 78.3 µM) | 1.93 µg/mL (≈ 6.04 µM) | 0.2 to 6.25 µg/mL (≈ 0.626 to 19.6 µM) | 0% | 8.1 µg/mL (≈ 25.4 µM) | 0% | 1.42 µg/mL (≈ 4.45 µM) | 2.66 µg/mL (≈ 8.33 µM) | 0.2 to 12.5 µg/mL (≈ 0.626 to 39.1 µM) | 8.64 µg/mL (≈ 27.1 µM) | 0.4 to 25 µg/mL (≈ 1.25 to 78.3 µM) | 4.79 µg/mL (≈ 15 µM) | 0.2 to 25 µg/mL (≈ 0.626 to 78.3 µM) | 17.2 µg/mL (≈ 53.9 µM) | 0.8 to 100 µg/mL (≈ 2.51 to 313 µM) | 3.6 µg/mL (≈ 11.3 µM) | 1.56 to 6.25 µg/mL (≈ 4.89 to 19.6 µM) | – | – | MIC (Proteus spp; Proteus spp, 42 strains, pH 7.2, reading 18 h after incubation at 37°C, read-out: range (MIC)): 0.2 to 100 µg/mL (≈ 0.626 to 313 µM); MIC (Pseudomonas aeruginosa; read-out: range (MIC)): 0.4 to 3.12 µg/mL (≈ 1.25 to 9.77 µM) |
| CCn1cc(C(=O)O)c(=O)c2cc(F)c(N3CCCC3)cc21 [Acid (9), 1-Ethyl-6-fluoro-1,4-dihydro-4-oxo-7-(pyrrolidin-1-yl) quinoline-3-carboxylic acid] | 3.83 µg/mL (≈ 12.6 µM) | – | 12.7 µg/mL (≈ 41.6 µM) | 3.12 to 25 µg/mL (≈ 10.3 to 82.2 µM) | 7% | 4.76 µg/mL (≈ 15.6 µM) | 12.5% | 9.87 µg/mL (≈ 32.4 µM) | 2.78 µg/mL (≈ 9.14 µM) | 0.2 to 6.25 µg/mL (≈ 0.657 to 20.5 µM) | 5.95 µg/mL (≈ 19.6 µM) | 0.4 to 25 µg/mL (≈ 1.31 to 82.2 µM) | 3.98 µg/mL (≈ 13.1 µM) | 0.8 to 6.25 µg/mL (≈ 2.63 to 20.5 µM) | 6.2 µg/mL (≈ 20.4 µM) | 3.12 to 25 µg/mL (≈ 10.3 to 82.2 µM) | 2.2 µg/mL (≈ 7.23 µM) | 0.4 to 3.12 µg/mL (≈ 1.31 to 10.3 µM) | 0% | 0% | R% = percentage of resistant strains (Escherichia coli): 10% |
